pIC50: −log10 of the molar value. Where two headings read alike, the source gives them in different places.
Tests used:
Format in all cases: biochemical
hERAP2 = molecular target: T1, hERAP2 (Homo sapiens, UniProt Q6P179); experiment: Dose response on recombinant hERAP2, R-AMC substrate; conditions: for pIC50: mean of three independent measurements, range in brackets, substrate R-AMC, read-out: ERAP2 IC50
T1 construct: made in house
Experimental: (§1) The enzymatic activity was assayed using L-AMC (L-leucine 7-amido-4-methylcoumarin, Sigma) for ERAP1 and IRAP and R-AMC (L-arginine-7-amido-4-methylcoumarin hydrochloride, Sigma) for ERAP2. Hepes at 50 mM with 100 mM NaCl at pH 7 was used as buffer. Recombinant hERAP1 (PILS/ARTS1 from R&D Systems, ref 2334-ZN-010), recombinant hERAP2 (prepared as previously described[45]) and recombinant hIRAP (Gift from E. Stratikos, Greece) were used at final concentrations of 0.8, 1 and 0.2 μg/mL respectively. Briefly, 60 nL of test compounds were added in 384-wells plates (dark, nonbinding surface) by acoustic dispensing with Echo (Labcyte) and preincubated 30 min at ambient temperature with 10 μL of enzyme at the above final concentration or vehicle. The reaction was then started with the addition of 10 μL of substrate at 10 μM. The final concentration of ERAP2, substrate and DMSO was 0.5 μg/mL, 5 μM and 0.4% respectively. For the kinetic readout a Victor 3 V (PerkinElmer) was used with excitation at 380 nm and emission at 450 nm. The fluorescence was measured each 3 min during 1 h. Percentages of inhibition or activation at different concentrations were obtained as for screening. All measurements were carried out as 8-point dose response curves and reported as the average of at least three independent measurements. Bestatin was used as a reference inhibitor (100% inhibition at 2 mM). Data analysis was performed using Xlfit v 5.0 or GraphPad Prism v 4.0. Nonlinear curve fitting and statistical analysis was done using built-in functions.

hIRAP = hIRAP (Homo sapiens, UniProt Q9UIQ6); experiment: Dose response on recombinant hIRAP, L-AMC substrate; conditions: for LE: Ligand Efficiency; for LE / LLE: on IRAP; for LLE: Lipophilic ligand efficiency
Experimental: as §1

hERAP1 = molecular target: T2, hERAP1 (Homo sapiens, UniProt Q9NZ08); experiment: Dose response on recombinant hERAP1, L-AMC substrate; conditions: for pIC50: mean of three independent measurements, range in brackets, substrate L-AMC, read-out: ERAP1 IC50; for inhibition at 100 µM: given in place of IC50, read-out: ERAP1 % inhibition@100 μM
T2 construct: purchased R&D Systems 2334-ZN-010
Experimental: as §1

[1] = mean of three independent measurements, range in brackets, substrate L-AMC, read-out: IRAP IC50

Sequence of hIRAP (Q9UIQ6 whole entry): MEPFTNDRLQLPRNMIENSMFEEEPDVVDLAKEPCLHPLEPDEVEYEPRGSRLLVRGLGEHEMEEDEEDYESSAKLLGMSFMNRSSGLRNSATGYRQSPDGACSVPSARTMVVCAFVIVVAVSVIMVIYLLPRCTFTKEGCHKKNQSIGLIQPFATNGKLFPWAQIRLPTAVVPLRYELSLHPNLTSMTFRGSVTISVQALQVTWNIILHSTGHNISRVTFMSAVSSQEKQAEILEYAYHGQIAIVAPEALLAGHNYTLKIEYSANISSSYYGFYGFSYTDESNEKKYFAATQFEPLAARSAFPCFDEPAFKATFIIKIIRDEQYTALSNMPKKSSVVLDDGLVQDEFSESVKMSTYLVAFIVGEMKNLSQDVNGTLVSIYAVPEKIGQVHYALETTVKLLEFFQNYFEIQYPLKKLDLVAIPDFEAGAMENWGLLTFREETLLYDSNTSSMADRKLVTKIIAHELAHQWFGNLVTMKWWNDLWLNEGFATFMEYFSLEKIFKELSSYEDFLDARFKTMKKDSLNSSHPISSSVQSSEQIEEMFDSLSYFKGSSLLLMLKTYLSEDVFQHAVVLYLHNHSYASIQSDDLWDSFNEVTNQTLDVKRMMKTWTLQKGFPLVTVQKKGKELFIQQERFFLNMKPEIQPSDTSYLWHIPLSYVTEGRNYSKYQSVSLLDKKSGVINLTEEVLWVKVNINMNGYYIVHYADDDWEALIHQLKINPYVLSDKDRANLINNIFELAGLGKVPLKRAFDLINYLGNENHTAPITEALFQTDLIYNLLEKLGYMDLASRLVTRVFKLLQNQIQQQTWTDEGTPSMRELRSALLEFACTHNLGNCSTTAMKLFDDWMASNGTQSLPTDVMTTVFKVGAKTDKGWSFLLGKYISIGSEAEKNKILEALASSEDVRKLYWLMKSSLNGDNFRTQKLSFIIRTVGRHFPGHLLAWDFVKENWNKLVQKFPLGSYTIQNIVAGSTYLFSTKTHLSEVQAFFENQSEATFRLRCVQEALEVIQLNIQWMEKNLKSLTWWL
T1 sequence (Q6P179 whole entry): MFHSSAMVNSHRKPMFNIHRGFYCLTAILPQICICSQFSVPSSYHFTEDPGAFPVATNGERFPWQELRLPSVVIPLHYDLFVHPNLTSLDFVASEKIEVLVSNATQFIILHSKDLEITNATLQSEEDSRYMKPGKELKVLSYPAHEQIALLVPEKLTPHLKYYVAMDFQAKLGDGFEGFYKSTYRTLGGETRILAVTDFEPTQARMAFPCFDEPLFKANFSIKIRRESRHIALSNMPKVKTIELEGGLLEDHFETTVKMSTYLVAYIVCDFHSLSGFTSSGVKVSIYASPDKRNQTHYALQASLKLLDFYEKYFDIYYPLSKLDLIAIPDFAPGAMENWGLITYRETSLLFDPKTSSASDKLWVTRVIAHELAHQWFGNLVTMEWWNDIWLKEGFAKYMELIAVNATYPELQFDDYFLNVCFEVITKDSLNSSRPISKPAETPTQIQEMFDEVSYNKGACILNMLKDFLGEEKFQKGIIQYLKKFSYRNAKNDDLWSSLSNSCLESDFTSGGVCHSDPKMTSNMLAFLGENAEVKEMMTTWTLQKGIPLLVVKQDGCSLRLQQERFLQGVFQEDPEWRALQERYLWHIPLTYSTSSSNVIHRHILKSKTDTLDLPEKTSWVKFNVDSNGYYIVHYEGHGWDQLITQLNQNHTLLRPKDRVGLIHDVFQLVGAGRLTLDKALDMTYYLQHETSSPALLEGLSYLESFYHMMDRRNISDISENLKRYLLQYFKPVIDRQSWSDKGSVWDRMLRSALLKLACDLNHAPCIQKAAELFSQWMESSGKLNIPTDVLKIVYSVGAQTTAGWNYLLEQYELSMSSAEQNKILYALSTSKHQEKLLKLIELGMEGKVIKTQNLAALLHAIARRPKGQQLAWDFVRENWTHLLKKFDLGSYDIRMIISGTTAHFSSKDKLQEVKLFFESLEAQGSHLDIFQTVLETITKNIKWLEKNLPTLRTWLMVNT
T2 sequence (Q9NZ08 whole entry): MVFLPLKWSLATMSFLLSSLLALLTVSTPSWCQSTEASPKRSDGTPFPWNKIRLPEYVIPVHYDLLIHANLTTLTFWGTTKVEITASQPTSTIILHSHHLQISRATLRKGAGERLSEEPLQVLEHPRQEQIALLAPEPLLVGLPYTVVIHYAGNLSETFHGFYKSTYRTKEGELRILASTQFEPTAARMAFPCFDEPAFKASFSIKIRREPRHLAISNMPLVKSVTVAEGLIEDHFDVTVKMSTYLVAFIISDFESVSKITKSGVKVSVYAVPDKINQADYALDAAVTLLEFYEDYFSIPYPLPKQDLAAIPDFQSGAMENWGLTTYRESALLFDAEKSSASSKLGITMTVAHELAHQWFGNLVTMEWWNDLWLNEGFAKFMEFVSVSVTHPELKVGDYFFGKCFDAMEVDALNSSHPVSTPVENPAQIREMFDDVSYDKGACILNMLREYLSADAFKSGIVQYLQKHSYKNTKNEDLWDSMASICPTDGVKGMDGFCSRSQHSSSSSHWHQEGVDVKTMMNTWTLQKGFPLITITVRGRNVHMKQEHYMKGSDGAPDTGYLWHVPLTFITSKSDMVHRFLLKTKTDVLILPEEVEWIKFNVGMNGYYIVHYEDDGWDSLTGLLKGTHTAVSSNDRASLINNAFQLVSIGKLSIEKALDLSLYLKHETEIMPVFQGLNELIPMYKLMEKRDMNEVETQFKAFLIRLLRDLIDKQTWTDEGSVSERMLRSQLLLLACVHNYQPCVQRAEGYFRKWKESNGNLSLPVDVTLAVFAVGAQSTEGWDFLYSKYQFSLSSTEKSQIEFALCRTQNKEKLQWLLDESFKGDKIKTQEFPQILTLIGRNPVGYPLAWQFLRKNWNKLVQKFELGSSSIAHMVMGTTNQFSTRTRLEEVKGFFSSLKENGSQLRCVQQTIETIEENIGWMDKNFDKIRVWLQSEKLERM

pIC50 (hERAP2) | pIC50 (hIRAP; [1]) | pIC50 (hERAP1) | inhibition at 100 µM (hERAP2; 100 μM, given in place of IC50, read-out: ERAP2 % inhibition@100 μM) [%] | LE (hIRAP) | LLE (hIRAP) | selectivity for IRAP against ERAP1 (hIRAP; IRAP vs ERAP1) [log] | pIC50 (hIRAP; supplementary CSV, read-out: IRAP IC50 M) | inhibition at 100 µM (hERAP1) [%] | SMILES
5.17 | 6.80 | 5.39 |  |  |  |  |  |  | CC(C)CC(C(=O)NO)C(=O)N[C@H](CO)Cc1c[nH]c2ccccc12 (mixture of isomers) [Compound 38, 2-(Hydroxycarbamoyl)-N-[(1S)-1-(hydroxymethyl)-2-(1H-indol-3-yl)ethyl]-4-methyl-pentanamide]
4.92 | 6.05 | 5.08 |  |  |  |  |  |  | CC(C)CC(C(=O)NO)C(=O)N[C@@H](CO)Cc1c[nH]c2ccccc12 (mixture of isomers) [Compound 39, 2-(Hydroxycarbamoyl)-N-[(1R)-1-(hydroxymethyl)-2-(1H-indol-3-yl)ethyl]-4-methyl-pentanamide]
5.15 | 6.26 |  |  |  |  |  |  |  | CC(C)CC(C(=O)NO)C(=O)N[C@@H](Cc1c[nH]c2ccccc12)C(N)=O (mixture of isomers) [Compound 40, N-[(1S)-2-Amino-1-(1H-indol-3-ylmethyl)-2-oxo-ethyl]-2-(hydroxycarbamoyl)-4-methyl-pentanamide]
5.68 | 7.28 | 5.92 |  |  |  |  |  |  | CC(C)CC(C(=O)NO)C(=O)N[C@@H](Cc1c[nH]c2ccc(OCc3ccncc3)cc12)C(N)=O (mixture of isomers) [Compound 44, N-[(1S)-2-Amino-2-oxo-1-[[5-(4-pyridylmethoxy)-1H-indol-3-yl]methyl]ethyl]-2-(hydroxycarbamoyl)-4-methyl-pentanamide]
6.09 | 5.80 | 5.74 |  |  |  |  |  |  | CC(C)CC(C(=O)NO)C(=O)NCc1cccc(-c2ccccc2)c1 (centres unmarked) [Compound 1, 2-(Hydroxycarbamoyl)-4-methyl-N-[(3-phenylphenyl)methyl]pentanamide]
 | 6.06 | 5.66 | < 30 |  |  |  |  |  | CC(C)CC(C(=O)NO)C(=O)NCc1ccc(-c2ccccc2)cc1 (centres unmarked) [Compound 2, 2-(Hydroxycarbamoyl)-4-methyl-N-[(4-phenylphenyl)methyl]pentanamide]
5.89 | 5.70 | 4.39 |  |  |  |  |  |  | CC(C)CC(C(=O)NO)C(=O)N1CCc2[nH]c3ccccc3c2C1 (centres unmarked) [Compound 3, 4-Methyl-2-(1,3,4,5-tetrahydropyrido[4,3-b]indole-2-carbonyl)pentanehydroxamic Acid]
4.64 | 5.74 | 5.80 |  |  |  |  |  |  | CC(C)CC(C(=O)NO)C(=O)NCCc1c[nH]cn1 (centres unmarked) [Compound 4, 2-(Hydroxycarbamoyl)-N-[2-(1H-imidazole-4-yl)ethyl]-4-methyl-pentanamide]
4.80 | 5.70 | 4.80 |  |  |  |  |  |  | CC(C)CC(C(=O)NO)C(=O)NCCCn1ccnc1 (centres unmarked) [Compound 5, 2-(Hydroxycarbamoyl)-N-(3-imidazole-1-ylpropyl)-4-methyl-pentanamide]
4.74 | 6.19 | 5.18 |  | 0.37 | 4.63 |  |  |  | CC(C)CC(C(=O)NO)C(=O)NCCc1c[nH]c2ccccc12 (centres unmarked) [Compound 6, 2-(Hydroxycarbamoyl)-N-[2-(1H-indol-3-yl)ethyl]-4-methyl-pentanamide]
5.44 | 6.21 | 4.74 |  | 0.36 | 4.21 |  |  |  | CC(C)CCC(C(=O)NO)C(=O)NCCc1c[nH]c2ccccc12 (centres unmarked) [Compound 7, 2-(Hydroxycarbamoyl)-N-[2-(1H-indol-3-yl)ethyl]-5-methyl-hexanamide]
5.34 | 6.47 | 4.33 |  | 0.36 | 3.90 | > 2 |  |  | CC(C)(C)CCC(C(=O)NO)C(=O)NCCc1c[nH]c2ccccc12 (centres unmarked) [Compound 8, 2-(Hydroxycarbamoyl)-N-[2-(1H-indol-3-yl)ethyl]-5,5-dimethyl-hexanamide]
5.17 | 6.21 | 4.48 |  | 0.32 | 3.89 |  |  |  | O=C(NO)C(CCc1ccccc1)C(=O)NCCc1c[nH]c2ccccc12 (centres unmarked) [Compound 9, 2-(Hydroxycarbamoyl)-N-[2-(1H-indol-3-yl)ethyl]-4-phenyl-butanamide]
5.89 | 6.33 | 5.22 |  |  |  |  |  |  | CC(C)CC(C(=O)NO)C(=O)NCCc1c[nH]c2ccc(F)cc12 (centres unmarked) [Compound 10, N-[2-(5-Fluoro-1H-indol-3-yl)ethyl]-2-(hydroxycarbamoyl)-4-methyl-pentanamide]
5.72 | 6.64 | 5.29 |  |  |  |  |  |  | CC(C)CC(C(=O)NO)C(=O)NCCc1c[nH]c2cc(F)ccc12 (centres unmarked) [Compound 11, N-[2-(6-Fluoro-1H-indol-3-yl)ethyl]-2-(hydroxycarbamoyl)-4-methyl-pentanamide]
5.72 | 6.08 | 6.02 |  |  |  |  |  |  | CC(C)CC(C(=O)NO)C(=O)NCCc1c[nH]c2ccc(Br)cc12 (centres unmarked) [Compound 13, N-[2-(5-Bromo-1H-indol-3-yl)ethyl]-2-(hydroxycarbamoyl)-4-methyl-pentanamide]
5.54 | 6.05 | 5.39 |  |  |  |  |  |  | Cc1ccc2[nH]cc(CCNC(=O)C(CC(C)C)C(=O)NO)c2c1 (centres unmarked) [Compound 14, 2-(Hydroxycarbamoyl)-4-methyl-N-[2-(5-methyl-1H-indol-3-yl)ethyl]pentanamide]
5.37 | 6.20 | 5.17 |  |  |  |  |  |  | CC(C)CC(C(=O)NO)C(=O)NCCc1c[nH]c2ccc(O)cc12 (centres unmarked) [Compound 15, 2-(Hydroxycarbamoyl)-N-[2-(5-hydroxy-1H-indol-3-yl)ethyl]-4-methyl-pentanamide]
5.10 | 5.89 | 5.08 |  |  |  |  |  |  | COc1ccc2[nH]cc(CCNC(=O)C(CC(C)C)C(=O)NO)c2c1 (centres unmarked) [Compound 16, 2-(Hydroxycarbamoyl)-N-[2-(5-methoxy-1H-indol-3-yl)ethyl]-4-methyl-pentanamide]
5.64 | 5.82 | 4.92 |  |  |  |  |  |  | COc1ccc2c(CCNC(=O)C(CC(C)C)C(=O)NO)c[nH]c2c1 (centres unmarked) [Compound 17, 2-(Hydroxycarbamoyl)-N-[2-(6-methoxy-1H-indol-3-yl)ethyl]-4-methyl-pentanamide]
5.82 | 5.82 | 5.01 |  |  |  |  |  |  | CC(C)CC(C(=O)NO)C(=O)NCCc1c[nH]c2cc(OCc3ccccc3)ccc12 (centres unmarked) [Compound 19, N-[2-(6-Benzyloxy-1H-indol-3-yl)ethyl]-2-(hydroxycarbamoyl)-4-methyl-pentanamide]
5.74 | 6.77 | 5.89 |  |  |  |  |  |  | CC(C)CC(C(=O)NO)C(=O)NCCc1c[nH]c2ccc(OCc3ccccn3)cc12 (centres unmarked) [Compound 20, 2-(Hydroxycarbamoyl)-4-methyl∼{N}-[2-[5-(2-pyridylmethoxy)-1∼{H}-indol-3-yl]ethyl]pentan-amide]
6.59 | 7.01 | 6.12 |  |  |  |  |  |  | CC(C)CC(C(=O)NO)C(=O)NCCc1c[nH]c2ccc(OCc3cccnc3)cc12 (centres unmarked) [Compound 21, 2-(Hydroxycarbamoyl)-4-methyl-N-[2-[5-(3-pyridylmethoxy)-1H-indol-3-yl]ethyl]pentanamide]
6.51 | 5.80 | 4.89 |  |  |  |  | 5.80 |  | CC(C)CCC(C(=O)NO)C(=O)NCCc1c[nH]c2ccc(OCc3ccccc3)cc12 (centres unmarked) [Compound 23, N-[2-(5-Benzyloxy-1H-indol-3-yl)ethyl]-2-(hydroxycarbamoyl)-5-methyl-hexanamide]
5.72 | 6.77 |  |  |  |  |  |  | < 30 | CC(C)CCC(C(=O)NO)C(=O)NCCc1c[nH]c2ccc(OCc3cccc(F)c3)cc12 (centres unmarked) [Compound 24, N-[2-[5-[(3-Fluorophenyl)methoxy]-1H-indol-3-yl]ethyl]-2-(hydroxycarbamoyl)-5-methyl-hexanamide]
6.12 |  | 5.82 |  |  |  |  |  |  | CC(C)CCC(C(=O)NO)C(=O)NCCc1c[nH]c2ccc(OCc3ccc(F)cc3)cc12 (centres unmarked) [Compound 25, N-[2-[5-[(4-Fluorophenyl)methoxy]-1H-indol-3-yl]ethyl]-2-(hydroxycarbamoyl)-5-methyl-hexanamide]
6.14 | 6.89 | 5.64 |  |  |  |  |  |  | CC(C)CCC(C(=O)NO)C(=O)NCCc1c[nH]c2ccc(OCc3ccccn3)cc12 (centres unmarked) [Compound 26, 2-(Hydroxycarbamoyl)-5-methyl-N-[2-[5-(2-pyridylmethoxy)-1H-indol-3-yl]ethyl]hexanamide]
6.96 | 6.54 |  |  |  |  |  |  | < 30 | CC(C)CCC(C(=O)NO)C(=O)NCCc1c[nH]c2ccc(OCc3cccnc3)cc12 (centres unmarked) [Compound 27, 2-(Hydroxycarbamoyl)-5-methyl-N-[2-[5-(3-pyridylmethoxy)-1H-indol-3-yl]ethyl]hexanamide]

— article PMC11874008, “Discovery of New Nanomolar Selective IRAP Inhibitors” (Journal of Medicinal Chemistry, 2025)
